# Literature values, collected in PMC8878452, “A Tale of Toxin Promiscuity: The Versatile Pharmacological Effects of Hcr 1b-2 Sea Anemone Peptide on Voltage-Gated Ion Channels” (Marine Drugs, 2022).
# “Also recorded” adds a separate entry of the source. Like-named read-outs stand apart in the source and are kept apart here. Where no end group is shown, it is not given here.
# Experiments:
# hERG = conditions: cited from earlier work
# Excerpt: APETx1 are known to modulate hERG [21], Nav1.2–1.6, and Nav1.8 [20], while APETx2 modulates ASICs, Kv3.4, [22], and hERG [23], as well as Nav1.2, Nav1.6, and Nav1.8 [20]. APETx3 is known for interacting with Nav1.2–1.4, Nav1.6, DmNav1, BgNav1, and VdNav1 [20]. […] Previous studies have shown that F15, Y32, F33, and L34 seem to be key residues for the interaction between APETx1 and hERG, as they are located on the molecular surface of this peptide. Hcr 1b-2 shares the same residues in its sequence (Figure 1), which can explain the similar effect observed.
# Nav1.1 = conditions: cited from earlier work
# Excerpt: (§1) APETx1 and APETx2 are well-known sea anemone peptides that are characterized as sodium channel modulators. Like Hcr 1b-2, APETx1 inhibits the mammalian Nav1.2–1.6 and Nav1.8 isoforms, while APETx2 acts on Nav1.2, Nav1.6, and Nav1.8.
# Nav1.7 = conditions: cited from earlier work
# Excerpt: as §1
# Nav1.8 = conditions: cited from earlier work
# Excerpt: (§2) APETx1 are known to modulate hERG [21], Nav1.2–1.6, and Nav1.8 [20], while APETx2 modulates ASICs, Kv3.4, [22], and hERG [23], as well as Nav1.2, Nav1.6, and Nav1.8 [20]. APETx3 is known for interacting with Nav1.2–1.4, Nav1.6, DmNav1, BgNav1, and VdNav1 [20]. […] Like Hcr 1b-2, APETx1 inhibits the mammalian Nav1.2–1.6 and Nav1.8 isoforms, while APETx2 acts on Nav1.2, Nav1.6, and Nav1.8.
# Nav1.5 = conditions: cited from earlier work
# Excerpt: as §2
# BgNav1 = conditions: cited from earlier work; for effect on insect channel BgNav: printed BgNav
# Excerpt: as §2
# Nav1.6 = conditions: cited from earlier work
# Excerpt: as §2
# Nav1.3 = conditions: cited from earlier work
# Excerpt: as §2
# Nav1.2 = conditions: cited from earlier work
# Excerpt: as §2
# Nav1.4 = conditions: cited from earlier work
# Excerpt: as §2
# Kv3.4 = system: Kv3.4; design: method as in 2 sources, ref 22 = [22]; PMID 15044953; doi:10.1038/sj.emboj.7600177; 22. Diochot S. Baron A. Rash L.D. Deval E. Escoubas P. Scarzello S. Salinas M. Lazdunski M. A new sea anemone peptide, APETx2, inhibits ASIC3, a major acid-sensitive channel in sensory neurons EMBO J. ||| ref 33 = [33]; PMID 16177043; doi:10.1523/JNEUROSCI.2119-05.2005; 33. Yeung S.Y. Thompson D. Wang Z. Fedida D. Robertson B. Modulation of Kv3 subfamily potassium currents by the sea anemone toxin BDS: Significance for CNS and biophysical studies J. Neurosci. 2005 25; conditions: cited from earlier work
# TTX-resistant isoforms = conditions: cited from earlier work
# Excerpt: (§3) The only targets in which Hcr 1b-2 was not active were Kv3.1 and Kv10.1 (Figure 2 and Figure 3). Among sea anemone toxins, BDS-I, from Anemonia sulcata, is a well-characterized toxin capable of inhibiting isoforms from the Kv3 family, being active on Kv3.1, Kv3.2, and Kv3.4 [33].
# Kv3.2 = conditions: cited from earlier work
# Excerpt: as §3
# TTX-sensitive channels = conditions: cited from earlier work
# Excerpt: as §3
# Kv3.1 = conditions: cited from earlier work
# Excerpt: as §3
# Kv1.5 = conditions: cited from earlier work
# Excerpt: (§4) APETx1 are known to modulate hERG [21], Nav1.2–1.6, and Nav1.8 [20], while APETx2 modulates ASICs, Kv3.4, [22], and hERG [23], as well as Nav1.2, Nav1.6, and Nav1.8 [20]. APETx3 is known for interacting with Nav1.2–1.4, Nav1.6, DmNav1, BgNav1, and VdNav1 [20].
# Kv1.4 = conditions: cited from earlier work
# Excerpt: as §4
# Kv1.3 = conditions: cited from earlier work
# Excerpt: as §4
# Kv2.1 = conditions: cited from earlier work
# Excerpt: as §4
# Kv10.1 = conditions: cited from earlier work
# DmNav1 = conditions: cited from earlier work
# Excerpt: as §4
# VdNav1 = conditions: cited from earlier work
# Excerpt: as §4
# ASIC = system: ASIC; design: method as in 2 sources, one per row (each row's own in cited_ref): ref 17 = [17]; PMID 29684594; doi:10.1016/j.peptides.2018.04.013; 17. Kalina R. Gladkikh I. Dmitrenok P. Chernikov O. Koshelev S. Kvetkina A. Kozlov S. Kozlovskaya E. Monastyrnaya M. New APETx-like peptides from sea anemone Heteractis crispa modulate ASIC1a channels ||| ref 22 = [22]; PMID 15044953; doi:10.1038/sj.emboj.7600177; 22. Diochot S. Baron A. Rash L.D. Deval E. Escoubas P. Scarzello S. Salinas M. Lazdunski M. A new sea anemone peptide, APETx2, inhibits ASIC3, a major acid-sensitive channel in sensory neurons EMBO J.; conditions: cited from earlier work
# Nav channels = conditions: cited from earlier work
# Excerpt: as §1
substance,measurement,setting,value
"APETx1: APETx family peptide from Anthopleura elegantissima, UniProt P61541 (GTTCYCGKTIGIYWFGTKTCPSNRGYTGSCGYFLGICCYPVD; ends and bridges not checked; cysteine pairing not given here; UniProt P61541 1-42, looked up)",effect on hERG,hERG,modulate
same,effect on Nav1.1,Nav1.1,unaffected
same,effect on Nav1.7,Nav1.7,unaffected
same,effect on Nav1.8,Nav1.8,modulate; also recorded: inhibits
same,effect on Nav1.5,Nav1.5,modulate; also recorded: inhibits
same,effect on insect channel BgNav,BgNav1,unaffected
same,effect on Nav1.6,Nav1.6,modulate; also recorded: inhibits
same,effect on Nav1.3,Nav1.3,modulate; also recorded: inhibits
same,effect on Nav1.2,Nav1.2,modulate; also recorded: inhibits
same,effect on Nav1.4,Nav1.4,modulate; also recorded: inhibits
"BDS-I: toxin from Anemonia sulcata, UniProt P11494 (AAPCFCSGKPGRGDLWILRGTCPGGYGYTSNCYKWPNICCYPH; UniProt P11494 1-43, looked up)",effect on Kv3.4,Kv3.4,active
same,effect on TTX-resistant isoforms,TTX-resistant isoforms,weakly affected
same,effect on Kv3.2,Kv3.2,active
same,effect on TTX-sensitive channels,TTX-sensitive channels,strongly enhances
same,effect on Kv3.1,Kv3.1,active
"APETx4: APETx family peptide from Anthopleura elegantissima, UniProt C0HL40 (GTTCYCGKTIGIYWFGKYSCPTNRGYTGSCPYFLGICCYPVD; ends and bridges not checked; cysteine pairing not given here; UniProt C0HL40 1-42, looked up)",effect on Kv1.5,Kv1.5,modulates
same,effect on Kv1.4,Kv1.4,modulates
same,effect on Kv1.3,Kv1.3,modulates
same,effect on Kv2.1,Kv2.1,modulates
same,effect on Nav1.5,Nav1.5,modulates
same,effect on Nav1.6,Nav1.6,modulates
same,effect on Nav1.4,Nav1.4,modulates
same,effect on Kv10.1,Kv10.1,notorious Kv10.1 inhibitor; also recorded: non-selective Kv10.1 inhibitor
"APETx3: APETx family peptide from Anthopleura elegantissima, UniProt B3EWF9 (GTPCYCGKTIGIYWFGTKTCPSNRGYTGSCGYFLGICCYPVD; ends and bridges not checked; cysteine pairing not given here; UniProt B3EWF9 1-42, looked up)",effect on hERG,hERG; Thr3Pro substitution,abolishes the activity
same,effect on DmNav1,DmNav1,interacting
same,effect on VdNav1,VdNav1,interacting
same,effect on BgNav1,BgNav1,interacting
same,effect on Nav1.6,Nav1.6,interacting
same,effect on Nav1.3,Nav1.3,interacting
same,effect on Nav1.2,Nav1.2,interacting
same,effect on Nav1.4,Nav1.4,interacting
"APETx2: APETx family peptide from Anthopleura elegantissima, UniProt P61542 (GTACSCGNSKGIYWFYRPSCPTDRGYTGSCRYFLGTCCTPAD; ends and bridges not checked; cysteine pairing not given here; UniProt P61542 1-42, looked up)",effect on ASICs,ASIC,modulates
same,effect on hERG,hERG,modulates
same,effect on Kv3.4,Kv3.4,modulates
same,effect on Nav1.1,Nav1.1,unaffected
same,effect on Nav1.7,Nav1.7,unaffected
same,modulation of voltage-dependence of Nav channels,Nav channels,did not modulate the voltage-dependence
same,effect on Nav1.8,Nav1.8,modulates; also recorded: acts on
same,effect on insect channel BgNav,BgNav1,unaffected
same,effect on Nav1.6,Nav1.6,modulates; also recorded: acts on
same,effect on Nav1.2,Nav1.2,modulates; also recorded: acts on
